Data taken from the kinase profiling compilation of Christmann-Franck et al. (2016).

Legend:
Experiment in all cases: radiometric filter-binding kinase assay, Kinase HotSpot
Conditions in all cases: compound 0.5 µM; ATP 10 µM
CDK5 CDK5R1 p25 (human) = CDK5 CDK5R1 p25 (human) (UniProt Q00535+Q15078)
RAF1 (human) = RAF1 (human) (UniProt P04049)
AURKC (human) = AURKC (human) (UniProt Q9UQB9)
TEC (human) = TEC (human) (UniProt P42680)
PBK (human) = PBK (human) (UniProt Q96KB5)
TNK2 (human) = TNK2 (human) (UniProt Q07912)
CDK6 CCND1 (human) = CDK6 CCND1 (human) (UniProt Q00534+P24385)
PAK3 (human) = PAK3 (human) (UniProt O75914)
CDK1 CCNA2 (human) = CDK1 CCNA2 (human) (UniProt P06493+P20248)
RPS6KB1 (human) = RPS6KB1 (human) (UniProt P23443)
CSNK1D (human) = CSNK1D (human) (UniProt P48730)
TSSK1B (human) = TSSK1B (human) (UniProt Q9BXA7)
CLK3 (human) = CLK3 (human) (UniProt P49761)
CLK3 (human), sequence (P49761 whole entry, looked up): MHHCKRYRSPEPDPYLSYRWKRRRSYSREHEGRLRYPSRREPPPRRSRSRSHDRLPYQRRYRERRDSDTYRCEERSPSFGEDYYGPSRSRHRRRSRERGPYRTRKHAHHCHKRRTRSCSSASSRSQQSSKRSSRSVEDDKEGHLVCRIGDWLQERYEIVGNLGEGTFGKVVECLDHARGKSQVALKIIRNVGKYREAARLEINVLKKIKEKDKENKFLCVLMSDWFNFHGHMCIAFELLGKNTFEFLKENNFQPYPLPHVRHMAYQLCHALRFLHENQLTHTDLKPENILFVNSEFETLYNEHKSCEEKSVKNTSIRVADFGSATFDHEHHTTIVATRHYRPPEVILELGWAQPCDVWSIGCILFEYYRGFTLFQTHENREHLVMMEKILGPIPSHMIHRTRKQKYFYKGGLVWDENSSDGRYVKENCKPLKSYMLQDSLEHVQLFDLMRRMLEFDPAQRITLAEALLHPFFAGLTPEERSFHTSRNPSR

KDR (human) = KDR (human) (UniProt P35968)
PDPK1 (human) = PDPK1 (human) (UniProt O15530)
KIT (human) = KIT (human) (UniProt P10721)
RET (human) = RET (human) (UniProt P07949)
RPS6KA5 KD2 (human) = RPS6KA5 KD2 (human) (UniProt O75582)
MAP3K7 TAB1 (human) = MAP3K7 TAB1 (human) (UniProt O43318+Q15750)
PKN2 (human) = PKN2 (human) (UniProt Q16513)
PKN2 (human), sequence (Q16513 whole entry, looked up): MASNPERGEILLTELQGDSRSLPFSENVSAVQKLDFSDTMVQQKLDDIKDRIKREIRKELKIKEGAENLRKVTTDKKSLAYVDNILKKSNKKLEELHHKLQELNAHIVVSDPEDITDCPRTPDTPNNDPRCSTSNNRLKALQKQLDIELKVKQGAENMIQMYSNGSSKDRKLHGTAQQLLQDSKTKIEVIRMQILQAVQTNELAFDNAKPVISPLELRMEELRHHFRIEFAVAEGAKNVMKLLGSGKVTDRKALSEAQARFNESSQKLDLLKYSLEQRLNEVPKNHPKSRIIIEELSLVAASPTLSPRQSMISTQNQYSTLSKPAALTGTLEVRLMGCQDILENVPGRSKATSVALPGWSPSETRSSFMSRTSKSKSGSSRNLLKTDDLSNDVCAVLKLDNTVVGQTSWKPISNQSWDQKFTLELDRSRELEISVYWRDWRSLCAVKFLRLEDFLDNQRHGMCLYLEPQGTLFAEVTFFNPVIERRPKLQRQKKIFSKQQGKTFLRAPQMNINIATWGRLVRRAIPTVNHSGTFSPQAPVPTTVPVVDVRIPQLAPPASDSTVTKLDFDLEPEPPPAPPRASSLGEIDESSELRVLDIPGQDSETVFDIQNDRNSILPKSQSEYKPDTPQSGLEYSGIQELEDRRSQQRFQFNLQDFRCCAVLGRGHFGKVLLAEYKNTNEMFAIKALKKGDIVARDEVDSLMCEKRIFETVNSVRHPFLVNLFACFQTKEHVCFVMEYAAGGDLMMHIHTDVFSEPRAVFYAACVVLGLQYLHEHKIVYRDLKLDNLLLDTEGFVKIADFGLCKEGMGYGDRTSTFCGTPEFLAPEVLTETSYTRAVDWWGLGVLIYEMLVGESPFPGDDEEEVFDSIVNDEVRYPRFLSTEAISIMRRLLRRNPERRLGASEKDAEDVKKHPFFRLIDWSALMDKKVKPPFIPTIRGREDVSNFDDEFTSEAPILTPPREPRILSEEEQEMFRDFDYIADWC

WEE1 (human) = WEE1 (human) (UniProt P30291)
MAPK1 (human) = MAPK1 (human) (UniProt P28482)
ERBB2 (human) = ERBB2 (human) (UniProt P04626)
EPHA4 (human) = EPHA4 (human) (UniProt P54764)
ACVR1B (human) = ACVR1B (human) (UniProt P36896)
NEK11 (human) = NEK11 (human) (UniProt Q8NG66)
DDR2 (human) = DDR2 (human) (UniProt Q16832)
DDR2 (human), sequence (Q16832 whole entry, looked up): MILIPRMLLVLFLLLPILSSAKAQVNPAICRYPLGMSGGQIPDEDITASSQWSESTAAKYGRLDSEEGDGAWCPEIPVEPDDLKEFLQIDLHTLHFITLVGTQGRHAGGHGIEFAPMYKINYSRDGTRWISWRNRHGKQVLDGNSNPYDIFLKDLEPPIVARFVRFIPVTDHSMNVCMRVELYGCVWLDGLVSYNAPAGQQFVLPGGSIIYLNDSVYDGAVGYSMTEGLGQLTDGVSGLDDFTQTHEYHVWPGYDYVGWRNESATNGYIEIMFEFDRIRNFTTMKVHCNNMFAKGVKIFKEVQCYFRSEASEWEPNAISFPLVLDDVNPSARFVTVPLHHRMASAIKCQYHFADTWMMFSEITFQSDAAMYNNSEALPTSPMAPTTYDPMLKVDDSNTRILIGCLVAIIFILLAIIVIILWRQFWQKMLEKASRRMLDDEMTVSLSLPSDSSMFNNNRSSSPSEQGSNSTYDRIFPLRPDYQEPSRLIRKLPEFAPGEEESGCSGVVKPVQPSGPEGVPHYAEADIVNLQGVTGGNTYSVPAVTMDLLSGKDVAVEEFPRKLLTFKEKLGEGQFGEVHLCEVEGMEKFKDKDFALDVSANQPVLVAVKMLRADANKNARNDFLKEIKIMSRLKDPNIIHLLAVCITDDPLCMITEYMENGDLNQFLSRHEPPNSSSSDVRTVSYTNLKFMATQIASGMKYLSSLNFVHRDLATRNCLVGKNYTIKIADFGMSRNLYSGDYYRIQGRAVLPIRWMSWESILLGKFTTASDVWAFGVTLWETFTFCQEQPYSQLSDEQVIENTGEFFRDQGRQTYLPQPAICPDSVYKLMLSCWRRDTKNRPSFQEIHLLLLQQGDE

MERTK (human) = MERTK (human) (UniProt Q12866)
MERTK (human), sequence (Q12866 whole entry, looked up): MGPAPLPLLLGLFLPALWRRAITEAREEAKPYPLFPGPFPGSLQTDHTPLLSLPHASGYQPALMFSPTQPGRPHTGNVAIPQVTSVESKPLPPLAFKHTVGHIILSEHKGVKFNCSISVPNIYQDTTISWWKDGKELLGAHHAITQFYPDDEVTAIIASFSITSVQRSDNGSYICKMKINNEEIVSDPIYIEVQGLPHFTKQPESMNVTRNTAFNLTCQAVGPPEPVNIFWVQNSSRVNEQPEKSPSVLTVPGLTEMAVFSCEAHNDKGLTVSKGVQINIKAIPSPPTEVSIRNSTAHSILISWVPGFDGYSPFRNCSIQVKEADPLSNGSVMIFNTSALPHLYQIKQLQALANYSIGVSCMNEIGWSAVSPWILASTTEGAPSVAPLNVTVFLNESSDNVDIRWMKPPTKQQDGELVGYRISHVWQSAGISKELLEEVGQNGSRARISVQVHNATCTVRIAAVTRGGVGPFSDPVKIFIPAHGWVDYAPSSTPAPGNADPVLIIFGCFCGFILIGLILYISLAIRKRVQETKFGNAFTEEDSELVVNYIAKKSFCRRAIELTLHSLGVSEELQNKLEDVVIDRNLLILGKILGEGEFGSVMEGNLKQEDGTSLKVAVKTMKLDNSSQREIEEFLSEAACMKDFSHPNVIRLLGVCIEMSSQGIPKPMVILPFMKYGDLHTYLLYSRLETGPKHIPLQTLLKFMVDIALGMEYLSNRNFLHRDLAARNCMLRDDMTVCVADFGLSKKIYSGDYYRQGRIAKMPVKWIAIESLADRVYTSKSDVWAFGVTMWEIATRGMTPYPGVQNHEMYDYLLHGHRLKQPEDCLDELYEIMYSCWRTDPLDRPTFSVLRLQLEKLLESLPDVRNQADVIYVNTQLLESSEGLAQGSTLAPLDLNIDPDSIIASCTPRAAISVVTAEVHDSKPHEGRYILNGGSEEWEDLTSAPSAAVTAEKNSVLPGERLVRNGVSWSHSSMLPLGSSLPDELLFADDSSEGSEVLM

CDK4 CCND3 (human) = CDK4 CCND3 (human) (UniProt P30281+P11802)
TAOK1 (human) = TAOK1 (human) (UniProt Q7L7X3)
VRK1 (human) = VRK1 (human) (UniProt Q99986)
PHKG2 (human) = PHKG2 (human) (UniProt P15735)
DAPK2 (human) = DAPK2 (human) (UniProt Q9UIK4)
AKT2 (human) = AKT2 (human) (UniProt P31751)
FES (human) = FES (human) (UniProt P07332)
MAPK14 (human) = MAPK14 (human) (UniProt Q16539)
MAP3K2 (human) = MAP3K2 (human) (UniProt Q9Y2U5)
FGR (human) = FGR (human) (UniProt P09769)
ERBB4 (human) = ERBB4 (human) (UniProt Q15303)
ERBB4 (human), sequence (Q15303 whole entry, looked up): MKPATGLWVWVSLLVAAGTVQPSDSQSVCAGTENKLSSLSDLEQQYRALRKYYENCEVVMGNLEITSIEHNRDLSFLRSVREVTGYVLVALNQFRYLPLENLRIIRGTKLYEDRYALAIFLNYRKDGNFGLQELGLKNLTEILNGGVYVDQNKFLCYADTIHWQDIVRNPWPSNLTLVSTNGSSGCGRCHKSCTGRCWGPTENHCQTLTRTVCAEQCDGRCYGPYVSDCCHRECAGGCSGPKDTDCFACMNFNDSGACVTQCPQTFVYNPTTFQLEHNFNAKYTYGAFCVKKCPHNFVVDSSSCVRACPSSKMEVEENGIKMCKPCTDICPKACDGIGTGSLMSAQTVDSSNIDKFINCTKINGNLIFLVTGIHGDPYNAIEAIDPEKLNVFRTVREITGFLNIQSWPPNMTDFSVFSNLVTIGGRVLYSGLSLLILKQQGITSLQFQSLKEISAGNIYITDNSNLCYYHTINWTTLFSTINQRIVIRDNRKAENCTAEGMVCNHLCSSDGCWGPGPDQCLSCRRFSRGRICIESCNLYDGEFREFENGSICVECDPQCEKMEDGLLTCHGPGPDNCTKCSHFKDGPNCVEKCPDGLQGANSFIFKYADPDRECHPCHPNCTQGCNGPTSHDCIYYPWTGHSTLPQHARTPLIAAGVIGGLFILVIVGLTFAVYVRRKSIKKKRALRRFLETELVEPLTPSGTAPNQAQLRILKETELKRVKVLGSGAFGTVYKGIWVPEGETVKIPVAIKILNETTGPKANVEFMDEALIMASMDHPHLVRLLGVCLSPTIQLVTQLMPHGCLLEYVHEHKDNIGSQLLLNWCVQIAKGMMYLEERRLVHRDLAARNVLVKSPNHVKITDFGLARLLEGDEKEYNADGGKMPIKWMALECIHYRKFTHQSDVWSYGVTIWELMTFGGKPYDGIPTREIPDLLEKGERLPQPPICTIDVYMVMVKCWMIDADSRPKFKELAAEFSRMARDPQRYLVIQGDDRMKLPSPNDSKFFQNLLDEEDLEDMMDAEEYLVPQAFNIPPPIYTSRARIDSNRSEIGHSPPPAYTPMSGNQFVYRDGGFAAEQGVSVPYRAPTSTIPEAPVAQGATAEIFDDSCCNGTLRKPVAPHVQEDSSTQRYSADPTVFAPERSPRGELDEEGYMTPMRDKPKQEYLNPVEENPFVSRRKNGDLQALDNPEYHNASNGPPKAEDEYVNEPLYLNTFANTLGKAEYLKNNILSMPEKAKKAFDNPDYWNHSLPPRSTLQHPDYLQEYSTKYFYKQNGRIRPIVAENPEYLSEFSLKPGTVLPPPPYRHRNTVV

STK11 (human) = STK11 (human) (UniProt Q15831)
TAOK2 (human) = TAOK2 (human) (UniProt Q9UL54)

PBK (human), sequence (Q96KB5 whole entry, looked up): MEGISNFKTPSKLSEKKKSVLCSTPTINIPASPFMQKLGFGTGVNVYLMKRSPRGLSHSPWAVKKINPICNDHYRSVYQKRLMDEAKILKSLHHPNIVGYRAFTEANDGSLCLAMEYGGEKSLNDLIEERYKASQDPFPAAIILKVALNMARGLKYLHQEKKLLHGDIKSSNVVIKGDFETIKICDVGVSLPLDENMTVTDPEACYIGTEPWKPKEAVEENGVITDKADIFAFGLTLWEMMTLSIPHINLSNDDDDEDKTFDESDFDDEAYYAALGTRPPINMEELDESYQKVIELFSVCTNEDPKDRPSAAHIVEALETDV

SMILES: O=C(Nc1cccc(Nc2nccc(Nc3cccc(C(F)(F)F)c3)n2)c1)C1CC1
- residual activity (CDK5 CDK5R1 p25 (human)): 99%
- residual activity (RAF1 (human)): 98.7%
- residual activity (AURKC (human)): 80.8%
- residual activity (TEC (human)): 158%
- residual activity (PBK (human)): 101%
- residual activity (TNK2 (human)): 66.5%
- residual activity (CDK6 CCND1 (human)): 93.4%
- residual activity (PAK3 (human)): 98.9%
- residual activity (CDK1 CCNA2 (human)): 95.9%
- residual activity (RPS6KB1 (human)): 98%
- residual activity (CSNK1D (human)): 111%
- residual activity (TSSK1B (human)): 100%
- residual activity (CLK3 (human)): 104%
- residual activity (KDR (human)): 91.6%
- residual activity (PDPK1 (human)): 104%
- residual activity (KIT (human)): 86.1%
- residual activity (RET (human)): 88.6%
- residual activity (RPS6KA5 KD2 (human)): 101%
- residual activity (MAP3K7 TAB1 (human)): 87.4%
- residual activity (PKN2 (human)): 89.5%
- residual activity (WEE1 (human)): 95.6%
- residual activity (MAPK1 (human)): 89%
- residual activity (ERBB2 (human)): 93.8%
- residual activity (EPHA4 (human)): 81%
- residual activity (ACVR1B (human)): 110%
- residual activity (NEK11 (human)): 102%
- residual activity (DDR2 (human)): 81.7%
- residual activity (MERTK (human)): 90.1%
- residual activity (CDK4 CCND3 (human)): 103%
- residual activity (TAOK1 (human)): 97.9%
- residual activity (VRK1 (human)): 88.2%
- residual activity (PHKG2 (human)): 107%
- residual activity (DAPK2 (human)): 120%
- residual activity (AKT2 (human)): 107%
- residual activity (FES (human)): 94.3%
- residual activity (MAPK14 (human)): 91.5%
- residual activity (MAP3K2 (human)): 91.6%
- residual activity (FGR (human)): 80.9%
- residual activity (ERBB4 (human)): 103%
- residual activity (STK11 (human)): 82.8%
- residual activity (TAOK2 (human)): 92.4%

SMILES: CCN(CC)C(=O)c1ccc(Nc2nc(OCC3CCCCC3)c3nc[nH]c3n2)cc1
- residual activity (CDK5 CDK5R1 p25 (human)): 77.2%
- residual activity (RAF1 (human)): 86.3%
- residual activity (AURKC (human)): 20.7%
- residual activity (TEC (human)): 63%
- residual activity (PBK (human)): 116%
- residual activity (TNK2 (human)): 21.4%
- residual activity (CDK6 CCND1 (human)): 52.9%
- residual activity (PAK3 (human)): 87.7%
- residual activity (CDK1 CCNA2 (human)): 95.2%
- residual activity (RPS6KB1 (human)): 89.5%
- residual activity (CSNK1D (human)): 102%
- residual activity (TSSK1B (human)): 15.3%
- residual activity (CLK3 (human)): 84.1%
- residual activity (KDR (human)): 76.5%
- residual activity (PDPK1 (human)): 69.1%
- residual activity (KIT (human)): 40.7%
- residual activity (RET (human)): 7.65%
- residual activity (RPS6KA5 KD2 (human)): 89.8%
- residual activity (MAP3K7 TAB1 (human)): 57.1%
- residual activity (PKN2 (human)): 91.8%
- residual activity (WEE1 (human)): 110%
- residual activity (MAPK1 (human)): 106%
- residual activity (ERBB2 (human)): 99.4%
- residual activity (EPHA4 (human)): 86.7%
- residual activity (ACVR1B (human)): 101%
- residual activity (NEK11 (human)): 132%
- residual activity (DDR2 (human)): 109%
- residual activity (MERTK (human)): 71.6%
- residual activity (CDK4 CCND3 (human)): 59.2%
- residual activity (TAOK1 (human)): 57.9%
- residual activity (VRK1 (human)): 93.1%
- residual activity (PHKG2 (human)): 96.6%
- residual activity (DAPK2 (human)): 91.7%
- residual activity (AKT2 (human)): 92%
- residual activity (FES (human)): 63.2%
- residual activity (MAPK14 (human)): 94.7%
- residual activity (MAP3K2 (human)): 25.3%
- residual activity (FGR (human)): 54.2%
- residual activity (ERBB4 (human)): 91%
- residual activity (STK11 (human)): 85.2%
- residual activity (TAOK2 (human)): 66%

SMILES: Cc1ccc(NC2=CC(=O)c3sc(C)nc3C2=O)cc1
- residual activity (CDK5 CDK5R1 p25 (human)): 61.9%
- residual activity (RAF1 (human)): 90.5%
- residual activity (AURKC (human)): 90.7%
- residual activity (TEC (human)): 117%
- residual activity (PBK (human)): 85.8%
- residual activity (TNK2 (human)): 94.3%
- residual activity (CDK6 CCND1 (human)): 101%
- residual activity (PAK3 (human)): 97.5%
- residual activity (CDK1 CCNA2 (human)): 75.9%
- residual activity (RPS6KB1 (human)): 97.2%
- residual activity (CSNK1D (human)): 101%
- residual activity (TSSK1B (human)): 115%
- residual activity (CLK3 (human)): 98.6%
- residual activity (KDR (human)): 101%
- residual activity (PDPK1 (human)): 88.7%
- residual activity (KIT (human)): 74.7%
- residual activity (RET (human)): 97.6%
- residual activity (RPS6KA5 KD2 (human)): 87.7%
- residual activity (MAP3K7 TAB1 (human)): 99.1%
- residual activity (PKN2 (human)): 115%
- residual activity (WEE1 (human)): 107%
- residual activity (MAPK1 (human)): 91.4%
- residual activity (ERBB2 (human)): 94.2%
- residual activity (EPHA4 (human)): 86.5%
- residual activity (ACVR1B (human)): 110%
- residual activity (NEK11 (human)): 98.3%
- residual activity (DDR2 (human)): 95.6%
- residual activity (MERTK (human)): 80.5%
- residual activity (CDK4 CCND3 (human)): 93.7%
- residual activity (TAOK1 (human)): 99.8%
- residual activity (VRK1 (human)): 108%
- residual activity (PHKG2 (human)): 96.3%
- residual activity (DAPK2 (human)): 91.9%
- residual activity (AKT2 (human)): 91.3%
- residual activity (FES (human)): 101%
- residual activity (MAPK14 (human)): 92.4%
- residual activity (MAP3K2 (human)): 93.3%
- residual activity (FGR (human)): 85.3%
- residual activity (ERBB4 (human)): 98.5%
- residual activity (STK11 (human)): 85.6%
- residual activity (TAOK2 (human)): 96.6%
